Where “and” joins values, the source holds several entries; their conditions need not be identical. Equal values may be shown once.
Assays:
Assay in all cases: Affinity-purification and mass spectrometry (AP-MS) chemical proteomics, all proteins;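 for Difference: 200 µM free competitor with 20 µM biotin probe overnight in lysate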
Format in all cases: binding
[1] = biological target: T1, proteins displaced from immobilized biotin-Cmpd 1 pulldowns (U2OS cell lysate) (Homo sapiens, UniProt Q9NZT1); conditions: GN=CALML5 (Q9NZT1)
T1 construct: endogenous in cells; host or cells: U2OS
T1 sequence (Q9NZT1 whole entry): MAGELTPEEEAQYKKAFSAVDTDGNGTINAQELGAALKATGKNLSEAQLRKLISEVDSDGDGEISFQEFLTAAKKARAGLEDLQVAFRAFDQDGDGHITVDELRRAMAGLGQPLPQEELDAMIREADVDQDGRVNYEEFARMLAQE

[2] = biological target: T2, proteins displaced from immobilized biotin-Cmpd 1 pulldowns (U2OS cell lysate) (Homo sapiens, UniProt P07339); conditions: GN=CTSD (P07339)
T2 construct: endogenous in cells; host or cells: U2OS
T2 sequence (P07339 65-412): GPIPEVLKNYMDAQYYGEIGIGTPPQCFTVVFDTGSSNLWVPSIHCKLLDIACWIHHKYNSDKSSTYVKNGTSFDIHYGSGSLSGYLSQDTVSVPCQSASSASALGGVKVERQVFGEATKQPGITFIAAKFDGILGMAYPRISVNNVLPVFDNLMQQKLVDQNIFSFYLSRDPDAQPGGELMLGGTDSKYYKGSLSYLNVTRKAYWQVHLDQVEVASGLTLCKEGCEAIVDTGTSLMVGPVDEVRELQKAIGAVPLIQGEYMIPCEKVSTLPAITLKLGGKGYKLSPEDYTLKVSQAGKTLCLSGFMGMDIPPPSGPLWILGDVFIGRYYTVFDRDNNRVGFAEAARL

[3] = biological target: T3, proteins displaced from immobilized biotin-Cmpd 1 pulldowns (U2OS cell lysate) (Homo sapiens, UniProt P09493); conditions: GN=TPM1 (H0YKX5)
T3 construct: endogenous in cells; host or cells: U2OS
T3 sequence (P09493 whole entry): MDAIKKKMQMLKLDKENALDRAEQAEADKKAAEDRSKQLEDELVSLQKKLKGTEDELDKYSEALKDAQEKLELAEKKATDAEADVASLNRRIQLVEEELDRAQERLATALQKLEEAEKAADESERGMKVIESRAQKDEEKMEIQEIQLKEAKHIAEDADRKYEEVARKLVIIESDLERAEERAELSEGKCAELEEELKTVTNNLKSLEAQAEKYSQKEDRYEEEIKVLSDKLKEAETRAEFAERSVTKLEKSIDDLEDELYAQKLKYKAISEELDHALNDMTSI

[4] = biological target: T4, proteins displaced from immobilized biotin-Cmpd 1 pulldowns (U2OS cell lysate) (Homo sapiens, UniProt Q13200); conditions: GN=PSMD2 (Q13200)
T4 construct: endogenous in cells; host or cells: U2OS
T4 sequence (Q13200 whole entry): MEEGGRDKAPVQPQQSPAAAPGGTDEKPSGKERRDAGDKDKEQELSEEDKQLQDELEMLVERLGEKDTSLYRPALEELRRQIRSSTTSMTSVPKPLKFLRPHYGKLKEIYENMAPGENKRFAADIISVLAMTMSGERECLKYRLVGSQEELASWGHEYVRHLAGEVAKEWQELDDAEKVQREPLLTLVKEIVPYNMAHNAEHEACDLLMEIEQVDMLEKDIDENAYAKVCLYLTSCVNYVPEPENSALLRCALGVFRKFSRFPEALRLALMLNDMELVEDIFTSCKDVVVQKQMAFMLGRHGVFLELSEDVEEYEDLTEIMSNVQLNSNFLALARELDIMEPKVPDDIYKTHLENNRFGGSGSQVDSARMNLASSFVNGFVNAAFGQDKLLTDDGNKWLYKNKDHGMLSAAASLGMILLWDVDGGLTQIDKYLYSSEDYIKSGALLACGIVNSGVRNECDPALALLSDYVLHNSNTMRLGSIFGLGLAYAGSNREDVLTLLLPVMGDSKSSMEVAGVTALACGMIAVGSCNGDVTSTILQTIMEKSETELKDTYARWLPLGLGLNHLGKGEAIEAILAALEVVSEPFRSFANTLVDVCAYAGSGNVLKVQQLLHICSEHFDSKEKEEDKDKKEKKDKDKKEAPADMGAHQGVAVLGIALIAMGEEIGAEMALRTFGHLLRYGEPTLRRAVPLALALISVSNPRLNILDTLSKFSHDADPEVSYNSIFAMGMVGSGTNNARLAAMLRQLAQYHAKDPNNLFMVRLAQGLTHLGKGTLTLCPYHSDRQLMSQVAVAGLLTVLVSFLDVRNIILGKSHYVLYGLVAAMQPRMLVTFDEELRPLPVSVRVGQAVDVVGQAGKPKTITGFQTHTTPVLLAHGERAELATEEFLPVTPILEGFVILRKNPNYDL

[5] = biological target: T5, proteins displaced from immobilized biotin-Cmpd 1 pulldowns (U2OS cell lysate) (Homo sapiens, UniProt P01876); conditions: GN=IGHA1 (P01876)
T5 construct: endogenous in cells; host or cells: U2OS
T5 sequence (P01876 whole entry): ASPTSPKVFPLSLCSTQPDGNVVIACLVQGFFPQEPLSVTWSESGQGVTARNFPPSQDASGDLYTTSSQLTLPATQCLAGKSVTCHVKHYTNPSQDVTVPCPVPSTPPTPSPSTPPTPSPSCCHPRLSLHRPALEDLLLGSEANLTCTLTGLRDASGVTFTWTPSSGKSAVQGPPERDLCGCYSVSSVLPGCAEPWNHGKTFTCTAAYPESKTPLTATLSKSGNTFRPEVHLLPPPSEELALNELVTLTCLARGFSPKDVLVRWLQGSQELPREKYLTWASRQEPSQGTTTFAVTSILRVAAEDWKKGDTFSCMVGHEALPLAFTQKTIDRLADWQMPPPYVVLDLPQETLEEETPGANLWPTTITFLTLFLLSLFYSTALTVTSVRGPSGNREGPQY

[6] = biological target: T6, proteins displaced from immobilized biotin-Cmpd 1 pulldowns (U2OS cell lysate) (Homo sapiens, UniProt O75616); conditions: GN=ERAL1 (O75616)
T6 construct: endogenous in cells; host or cells: U2OS
T6 sequence (O75616 44-437): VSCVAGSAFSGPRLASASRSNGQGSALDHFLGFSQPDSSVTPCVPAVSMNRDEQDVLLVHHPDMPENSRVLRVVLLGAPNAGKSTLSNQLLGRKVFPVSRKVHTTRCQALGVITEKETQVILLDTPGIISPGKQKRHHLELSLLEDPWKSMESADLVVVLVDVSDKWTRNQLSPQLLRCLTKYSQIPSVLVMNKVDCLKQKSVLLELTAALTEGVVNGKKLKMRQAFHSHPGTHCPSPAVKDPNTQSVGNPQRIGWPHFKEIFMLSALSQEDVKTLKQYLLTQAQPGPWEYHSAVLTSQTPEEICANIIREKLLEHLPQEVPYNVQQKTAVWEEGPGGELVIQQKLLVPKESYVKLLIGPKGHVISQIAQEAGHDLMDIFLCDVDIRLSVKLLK

Cn1c2c(c(=N)c3c1CCC3)CCC2 [Compound 1, 4-methyl-2,3,4,5,6,7-hexahydrodicyclopenta[b,e]pyridin-8(1H)-imine]
Difference ([1]; Cmpd minus DMSO, -LOG(P-value) 2.02756): -2.389 | iBAQ Cmpd ([1]; replicates 1-3): 18.8431 and 20.0939 and 20.182 | Difference ([2]; Cmpd minus DMSO, -LOG(P-value) 0.933319): -3.118 | iBAQ Cmpd ([2]; replicates 1-3): 18.4576 and 18.593 and 15.0798 | Difference ([3]; Cmpd minus DMSO, -LOG(P-value) 1.96752): -0.7334 | iBAQ Cmpd ([3]; replicates 1-3): 21.937 and 22.2825 and 22.2241 | Difference ([4]; Cmpd minus DMSO, -LOG(P-value) 1.86828): -0.9512 | iBAQ Cmpd ([4]; replicates 1-3): 17.2697 and 17.2993 and 16.9257 | Difference ([5]; Cmpd minus DMSO, -LOG(P-value) 0.808053): -3.043 | iBAQ Cmpd ([5]; replicates 1-3): 18.0352 and 17.6842 and 20.2605 | Difference ([6]; Cmpd minus DMSO, -LOG(P-value) 0.929321): 2.334 | iBAQ Cmpd ([6]; replicates 1-3): 17.6381 and 15.7018 and 17.9385

From article PMC9481570, “A small molecule antagonist of SMN disrupts the interaction between SMN and RNAP II” (Nature Communications, 2022)
